# Results reported in ChEMBL document CHEMBL1201862, “PubChem BioAssay data set” (2004).
# The source made the active and inactive calls.
# How the values were obtained:
# [1] = HEp-2 cell cytotoxicity, dose response, cytotoxicity control for RSV inhibitor project, HTS (AID 2410); type: functional; details: human respiratory syncytial virus
# [2] = biological target: Paired box protein Pax-8 (Homo sapiens, UniProt Q06710); test: inhibitors of PAX8-driven TPO luciferase reporter, dose response, RMG-I cells, cherry-pick (AID 687027); type: functional, cell-based;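 note: luciferase reporter driven by Pax8 target thyroperoxidase promoter measured by SteadyGlo luminescence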
# Paired box protein Pax-8, sequence (Q06710 whole entry): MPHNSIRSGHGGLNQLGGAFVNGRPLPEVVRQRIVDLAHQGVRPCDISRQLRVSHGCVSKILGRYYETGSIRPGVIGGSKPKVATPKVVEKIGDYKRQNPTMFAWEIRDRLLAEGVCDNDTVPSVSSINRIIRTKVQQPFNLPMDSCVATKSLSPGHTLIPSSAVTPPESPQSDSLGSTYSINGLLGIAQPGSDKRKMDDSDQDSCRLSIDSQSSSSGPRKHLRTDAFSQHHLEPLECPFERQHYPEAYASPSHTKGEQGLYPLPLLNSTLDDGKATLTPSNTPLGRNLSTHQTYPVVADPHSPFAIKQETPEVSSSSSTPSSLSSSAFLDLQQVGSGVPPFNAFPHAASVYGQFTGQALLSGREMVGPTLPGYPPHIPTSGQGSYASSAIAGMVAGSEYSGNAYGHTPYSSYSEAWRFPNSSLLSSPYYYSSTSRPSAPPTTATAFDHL
# [3] = biological target: Genome polyprotein (dengue virus type 2, UniProt P29990); test: Dengue-2 NS5 methyltransferase inhibitors, primary screen, biochemical, confirmation dose response (AID 588689); type: functional
# Genome polyprotein, sequence (P29990 2492-3391 limits assumed): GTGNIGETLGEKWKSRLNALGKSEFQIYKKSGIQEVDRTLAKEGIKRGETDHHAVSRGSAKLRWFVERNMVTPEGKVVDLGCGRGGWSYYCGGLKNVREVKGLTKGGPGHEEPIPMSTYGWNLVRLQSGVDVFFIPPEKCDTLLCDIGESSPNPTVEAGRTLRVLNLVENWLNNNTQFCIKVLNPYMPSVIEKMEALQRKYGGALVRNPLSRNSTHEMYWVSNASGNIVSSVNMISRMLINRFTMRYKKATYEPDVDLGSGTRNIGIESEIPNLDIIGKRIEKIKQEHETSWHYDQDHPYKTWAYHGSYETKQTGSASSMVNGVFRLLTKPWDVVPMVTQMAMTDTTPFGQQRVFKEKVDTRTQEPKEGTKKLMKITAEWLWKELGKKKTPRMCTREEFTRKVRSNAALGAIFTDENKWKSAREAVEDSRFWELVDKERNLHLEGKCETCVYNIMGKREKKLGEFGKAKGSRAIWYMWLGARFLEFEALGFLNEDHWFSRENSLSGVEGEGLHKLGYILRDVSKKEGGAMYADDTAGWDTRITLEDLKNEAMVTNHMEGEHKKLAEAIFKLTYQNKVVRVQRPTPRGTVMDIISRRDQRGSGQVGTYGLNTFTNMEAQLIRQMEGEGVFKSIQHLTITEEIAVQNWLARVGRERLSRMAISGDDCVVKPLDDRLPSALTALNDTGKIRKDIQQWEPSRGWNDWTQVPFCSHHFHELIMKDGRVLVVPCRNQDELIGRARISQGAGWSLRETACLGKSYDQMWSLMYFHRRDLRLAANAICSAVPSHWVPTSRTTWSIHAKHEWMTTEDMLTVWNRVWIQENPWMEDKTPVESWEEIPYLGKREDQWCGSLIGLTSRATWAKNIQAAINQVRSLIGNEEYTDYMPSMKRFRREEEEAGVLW
# [4] = test system: Streptococcus sp. 'group A'; test: growth inhibition of control SK(-) GAS strain, dose response, counter-screen for streptokinase expression inhibitor project, luminescence, kanamycin, BacTiterGlo, confirmation (AID 1900); type: functional, organism-based
# [5] = biological target: T1, Streptokinase A (Streptococcus pyogenes serotype M1, UniProt P10520); test: S. pyogenes streptokinase expression inhibitors, potency, dose response, plasminogen activation absorbance, OD405 (AID 1914); type: functional, Streptococcus pyogenes M1 GAS;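 note: secreted streptokinase activity via plasminogen activation per viability signal from cell pellet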
# T1 sequence (P10520 whole entry): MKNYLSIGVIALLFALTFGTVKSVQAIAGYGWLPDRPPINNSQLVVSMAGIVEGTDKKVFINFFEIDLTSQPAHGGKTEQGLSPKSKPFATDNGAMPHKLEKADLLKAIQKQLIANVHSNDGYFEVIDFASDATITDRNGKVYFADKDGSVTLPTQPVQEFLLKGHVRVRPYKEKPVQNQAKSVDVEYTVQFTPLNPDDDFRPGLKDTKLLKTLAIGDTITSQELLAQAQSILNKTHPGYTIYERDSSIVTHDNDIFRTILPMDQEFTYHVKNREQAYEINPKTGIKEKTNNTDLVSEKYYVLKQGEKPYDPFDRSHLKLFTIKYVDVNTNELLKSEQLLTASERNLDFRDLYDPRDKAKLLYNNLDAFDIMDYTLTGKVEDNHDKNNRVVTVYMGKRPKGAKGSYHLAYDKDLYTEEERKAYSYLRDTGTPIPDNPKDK
# [6] = test system: Streptococcus; test: Group A Streptococcus viability loss, dose response, counter-screen for streptokinase expression inhibitor project, luminescence, BacTiterGlo (AID 1915); type: functional, organism-based;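 note: potency for reduction of bacterial viability or growth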
# [7] = growth suppression of PTEN-null colon cells, dose response, cell-based, HCT116 PTEN knockout (AID 1047); type: functional;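 note: HCT116 colon tumor cells with PTEN knocked out; cells exposed to compound for 60 hours before readout; potency for loss of cell viability measured by luminescence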
# [8] = growth suppression of beta-catenin-knockout colon cells, dose response, cell-based, HCT116, human colon tumor (AID 1045); type: functional;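 note: HCT116 colon tumor cells with beta catenin knocked out; cells exposed to compound for 60 hours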
# [9] = biological target: Induced myeloid leukemia cell differentiation protein Mcl-1 (Homo sapiens, UniProt Q07820); type: functional
# Induced myeloid leukemia cell differentiation protein Mcl-1, sequence (Q07820 whole entry): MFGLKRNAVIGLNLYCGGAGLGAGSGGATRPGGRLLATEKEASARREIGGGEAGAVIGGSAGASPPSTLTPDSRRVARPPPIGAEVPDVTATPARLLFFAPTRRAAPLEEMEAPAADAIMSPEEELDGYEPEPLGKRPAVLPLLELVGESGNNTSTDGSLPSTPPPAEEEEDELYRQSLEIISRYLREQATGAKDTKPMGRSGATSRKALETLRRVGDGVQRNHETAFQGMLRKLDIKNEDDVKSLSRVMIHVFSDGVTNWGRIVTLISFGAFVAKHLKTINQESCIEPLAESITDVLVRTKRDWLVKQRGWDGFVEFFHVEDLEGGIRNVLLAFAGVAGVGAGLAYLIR
# [10] = biological target: T2, Heat shock factor protein 1 (Mus musculus, UniProt P38532); test: HSF1 potentiators in luciferase reporter cells, confirmation, cell-based, NIH3T3, luminescence, dose retest (AID 435004); type: functional;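 note: stress induced by proteasome inhibitor MG132 added 30 min after compound; luciferase reporter driven by HSF1 response element in NIH3T3 cells; actives raise luminescence as potentiators of the MG132 stress response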
# T2 sequence (P38532 whole entry): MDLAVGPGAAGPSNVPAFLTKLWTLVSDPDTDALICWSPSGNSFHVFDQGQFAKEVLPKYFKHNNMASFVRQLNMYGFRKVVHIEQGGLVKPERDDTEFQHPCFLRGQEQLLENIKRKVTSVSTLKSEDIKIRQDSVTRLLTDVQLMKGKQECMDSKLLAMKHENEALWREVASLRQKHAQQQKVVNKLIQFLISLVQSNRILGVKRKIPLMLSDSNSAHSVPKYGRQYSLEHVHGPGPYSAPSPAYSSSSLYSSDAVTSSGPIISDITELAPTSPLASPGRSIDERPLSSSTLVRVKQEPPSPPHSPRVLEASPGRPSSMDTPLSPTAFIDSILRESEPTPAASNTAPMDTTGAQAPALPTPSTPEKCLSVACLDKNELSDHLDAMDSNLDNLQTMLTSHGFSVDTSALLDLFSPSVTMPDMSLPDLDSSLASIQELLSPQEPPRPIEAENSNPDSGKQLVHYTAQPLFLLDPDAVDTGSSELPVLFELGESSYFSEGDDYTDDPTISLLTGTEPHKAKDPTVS
# [11] = P. falciparum Dd2 growth inhibitors, dose response, SYBR Green, cherry-picked samples (AID 1159567); type: functional, cell-based
# [12] = inhibitors of HIV Env-driven cell fusion, dose response, cherry-pick (AID 652057); type: functional, cell-based
# [13] = ZM109 Env clade C HIV-1 fusion inhibitors, dose response, HeLa effector, CEM target cells, luciferase, cherry-pick (AID 652058); type: functional, cell-based
# [14] = inhibitors of clade B AD8 Env fusion, dose response, cell-based, cherry-pick (AID 652062); type: functional;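 note: luciferase signal from cell-cell fusion driven by HIV-1 clade B AD8 Env; potency is for inhibitors of fusion seen as a drop in luminescence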
# [15] = biological target: Luciferin 4-monooxygenase (Photinus pyralis, UniProt P08659); test: firefly luciferase enzyme inhibitors, dose response, biochemical, luminescence (AID 1891)
# Luciferin 4-monooxygenase, sequence (P08659 whole entry): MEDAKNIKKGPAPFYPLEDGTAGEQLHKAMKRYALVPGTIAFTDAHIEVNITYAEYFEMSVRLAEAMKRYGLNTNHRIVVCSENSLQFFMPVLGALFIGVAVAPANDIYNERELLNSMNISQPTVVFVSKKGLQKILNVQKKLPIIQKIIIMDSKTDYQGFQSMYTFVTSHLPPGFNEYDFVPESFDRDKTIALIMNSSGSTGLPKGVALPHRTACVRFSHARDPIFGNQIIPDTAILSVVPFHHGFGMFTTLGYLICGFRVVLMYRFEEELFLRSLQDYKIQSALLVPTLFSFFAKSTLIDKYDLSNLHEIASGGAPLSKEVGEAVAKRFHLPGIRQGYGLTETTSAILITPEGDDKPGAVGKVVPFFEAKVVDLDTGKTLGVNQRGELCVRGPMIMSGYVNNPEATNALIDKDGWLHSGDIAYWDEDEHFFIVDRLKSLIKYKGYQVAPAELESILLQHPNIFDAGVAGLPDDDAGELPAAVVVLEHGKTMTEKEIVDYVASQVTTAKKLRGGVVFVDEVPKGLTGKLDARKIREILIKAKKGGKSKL
# [16] = Luminescence Cell-Based Dose Confirmation HTS to Identify Inhibitors of Platelet Dense Granule Release. [Related pubchem assays: 1663 (Primary HTS), 1678 (Summary of Project)]; type: functional
# [17] = inhibitors of intracellular T. cruzi replication, confirmation, NIH3T3 host cells, beta-gal luminescence (AID 2044); type: functional, cell-based;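 note: intracellular parasites grown in NIH/3T3 mouse fibroblasts as host cells; luminescent beta-galactosidase reporter signal from transgenic T. cruzi replicating inside host cells; inhibitors lower the luminescence signal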
# [18] = cytotoxicity toward NIH3T3 fibroblasts, dose response, counter-screen, cell-based, ATP luminescence, mouse fibroblasts (AID 2010); type: functional;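 note: cells exposed to compound for about 90 hours before reading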
# [19] = biological target: T3, Calpain-2 catalytic subunit (Sus scrofa, UniProt P43367); test: pig calpain II inhibitor potency, dose response, biochemical, fluorogenic peptide substrate (AID 1420); type: functional
# T3 sequence (P43367 whole entry): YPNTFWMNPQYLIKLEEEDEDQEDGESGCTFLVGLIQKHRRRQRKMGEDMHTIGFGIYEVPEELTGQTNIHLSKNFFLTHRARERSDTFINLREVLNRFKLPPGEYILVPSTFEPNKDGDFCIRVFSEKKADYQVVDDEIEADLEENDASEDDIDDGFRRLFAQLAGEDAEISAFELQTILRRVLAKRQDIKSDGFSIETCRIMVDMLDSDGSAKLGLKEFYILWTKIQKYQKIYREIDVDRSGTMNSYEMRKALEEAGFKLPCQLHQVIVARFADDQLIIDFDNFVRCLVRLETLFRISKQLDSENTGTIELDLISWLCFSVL
# [20] = Luminescence Cell-Based Dose Retest to Confirm Inhibitors of Cancer Stem Cells. [Related pubchem assays (depositor defined):AID2717, AID2721]; type: functional; details: Homo sapiens
# [21] = biological target: T2, Heat shock factor protein 1; test: inhibition of MG132-induced HSE-luciferase signal, confirmation, cell-based, NIH3T3, luminescence, dose retest (AID 2382); type: functional;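 note: NIH3T3 fibroblasts with HSF1-driven luciferase reporter stressed by proteasome inhibitor MG132; luminescence from HSF1-driven luciferase expression after 8 hours of MG132 stress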
smiles,measurement,setting,value
Cc1cc2ccccc2n1CCNC(=O)COc1ccc2ccccc2c1,CC50,[1],21.4 µM (active)
Oc1ccc(C[C@H]2CN([C@@H](Cc3ccc(O)cc3)CN3CCC[C@@H]3CN3C(=S)NC[C@@H]3Cc3ccccc3)C(=S)N2CC2CCCCCC2)cc1,AC50,[2],9.27 µM (active)
O=C(O)c1ccc(N=N/C(=N\Nc2ccc(C(=O)O)cc2)c2ccccc2)cc1,IC50,[3],30.4 µM (active)
C[C@H]1CN([C@@H](C)CO)C(=O)c2cccc(NC(=O)Nc3ccc(F)cc3)c2O[C@H]1CN(C)C(=O)Nc1ccc(C(F)(F)F)cc1,AC50,[2],13.1 µM (active)
CC(C)c1ccc(-n2cccc2/C=C2/C(=N)N3C=CSC3=NC2=O)cc1,EC50,[4],2.1 µM (active)
same,EC50,[5],> 150 µM (not active)
same,EC50,[6],14.7 µM (active)
O=C(Nc1nccs1)c1cccc(N2C(=O)c3cccc4c([N+](=O)[O-])ccc(c34)C2=O)c1,EC50,[7],3.77 µM (active)
same,EC50,[8],2.23 µM (active)
same,IC50,[9],1.45 µM (not active)
same,EC50,[10],8.49 µM (active)
CN1c2ccc(C#Cc3cccnc3)cc2[C@@H]2[C@@H](CCN2C(=O)C2CCC2)[C@@H]1CO,AC50,[11],4.18 µM (active)
Cc1noc(C)c1S(=O)(=O)N(C)C[C@@H]1Oc2ccc(NC(=O)NC3CCCCC3)cc2CC(=O)N([C@H](C)CO)C[C@@H]1C,AC50,[12],5.98 µM (active)
same,AC50,[13],4.3 µM (active)
same,AC50,[14],4.26 µM (active)
CCCOc1ccc(/C=C2/C(=O)ON=C2C)cc1OCC,IC50,[3],29 µM (active)
COc1ccc(S(=O)(=O)Nc2ccc3c(c2)CC(=O)N([C@H](C)CO)C[C@H](C)[C@H](CN(C)S(=O)(=O)c2ccccc2)O3)cc1,AC50,[12],< 0.26 µM (active)
same,AC50,[14],2.09 µM (active)
N#C[C@@H]1[C@H](c2ccccc2-c2cccc(F)c2)[C@H](CO)N1C(=O)C1CC1,AC50,[11],3.48 µM (active)
Cc1ccc(-c2nnc(CSc3nc(C(C)C)nc4sc(C)c(C)c34)o2)cc1,EC50,[15],> 112 µM (not active)
same,EC50,[16],> 112 µM (not active)
OC[C@@H]1CC[C@@H]2O[C@H](CCc3ccc(-c4ccc(F)cc4)cc3)[C@H](n3cc(C4CC4)nn3)C[C@@H]2O1,AC50,[11],7.67 µM (active)
CN1C(=O)/C(=C\c2ccccc2F)Sc2ccc(C(=O)NC3CCN(Cc4ccccc4)CC3)cc21,EC50,[4],7.12 µM (active)
same,EC50,[5],> 150 µM (not active)
same,EC50,[17],0.243 µM (active)
same,EC50,[18],> 60 µM (not active)
same,EC50,[6],41.8 µM (active)
CCCCCCCC1=NN(c2ccc(S(=O)(=O)O)cc2)C(=O)C1N=O (configuration not stated),IC50,[3],27.4 µM (active)
COc1cc(C(=O)NS(=O)(=O)c2ccccc2C)ccc1Cc1cn(C)c2ccc(NC(=O)OC3CCCC3)cc12 [ZAFIRLUKAST],EC50,[4],0.936 µM (active)
same,EC50,[5],> 50 µM (not active)
same,EC50,[6],> 50 µM (not active)
Cc1ccnn2c(-c3ccccc3)c3c(=O)n(C)c(=O)n(C)c3c12,EC50,[4],> 150 µM (not active)
same,EC50,[5],> 150 µM (not active)
same,EC50,[6],> 150 µM (not active)
CCC(=O)N1CCC2(CC1)CN(Cc1ccc3c(c1)OCO3)[C@@H](CO)c1c2c2ccc(OC)cc2n1C,AC50,[11],4.05 µM (active)
O=C1CC(C(=O)Nc2ccc(Cl)cc2)n2ncnc2N1 (configuration not stated),IC50,[19],< 0.4 µM (not active)
CCn1c(NCc2cc(Cl)ccc2O)nc2ccccc21,CC50,[1],44.7 µM (active)
Cc1ccccc1N=C(S)N(CCc1c(C)[nH]c2ccc(F)cc12)Cc1cccnc1,IC50,[19],> 50 µM (not active)
COC(=O)C(NC(=O)c1ccccc1C)(Nc1ncc(S(=O)(=O)c2ccc([N+](=O)[O-])cc2)s1)C(F)(F)F (configuration not stated),CC50,[1],12.4 µM (active)
Cc1cccc(N=C(S)NCc2ccncc2)c1C,EC50,[15],> 112 µM (not active)
same,EC50,[16],> 112 µM (not active)
O=C(NCCC1=CCCCC1)c1ccc2c(c1)N(Cc1ccccc1)C(=O)CS2,EC50,[17],2.88 µM (active)
same,IC50,[19],5.5 µM (not active)
same,EC50,[18],> 30 µM (not active)
COc1ccc(C(C2C(=O)CC(C)(C)CC2=O)C2C(=O)CC(C)(C)CC2=O)cc1CO,IC50,[3],45.8 µM (active)
CCCCSc1nnc(-c2ccc(C)cc2)c2ccccc12,IC50,[19],5.25 µM (not active)
CCOC(=O)N1CCc2c(sc3c2c(=O)n(Cc2ccccc2)c(=O)n3CC(=O)NCCOC)C1,IC50,[19],7.05 µM (not active)
Oc1ccc(/C=N/NC(=S)N/N=C/c2ccc(O)cc2)cc1,EC50,[15],0.316 µM (active)
same,EC50,[16],0.317 µM (active)
C[C@@H]1CN([C@@H](C)CO)C(=O)c2c(c3ccccc3n2C)-c2ccccc2CO[C@H]1CN(C)C(=O)Nc1ccc2c(c1)OCO2,AC50,[2],5.68 µM (active)
C=CCn1c(N2C(=O)CC(Cc3ccccc3)C2=O)nc2ccccc21 (configuration not stated),EC50,[4],9.02 µM (active)
same,EC50,[5],> 150 µM (not active)
same,EC50,[6],> 150 µM (not active)
CC(CCc1ccccc1)NC(=O)CSc1cccc[n+]1[O-] (configuration not stated),IC50,[19],44.7 µM (not active)
Fc1ccc(CSc2nc3ccccc3[nH]2)c2ccccc12,EC50,[4],8.67 µM (active)
same,EC50,[5],14.1 µM (active)
same,IC50,[19],2.61 µM (not active)
same,EC50,[6],13.9 µM (active)
same,AC50,[20],5.37 µM (active)
CCN(CC)C(=O)c1ccc(-c2ccccc2)cc1,EC50,[21],> 195 µM (not active)
CCC(CC)c1nnc(NC(=O)CCNC(=O)c2ccccc2Cl)s1,EC50,[15],> 112 µM (not active)
same,EC50,[16],> 112 µM (not active)
NC(=O)CSc1cn(Cc2ccc(F)cc2)c2ccccc12,EC50,[15],> 112 µM (not active)
same,EC50,[16],> 112 µM (not active)
COc1cc(C(=O)OCC(=O)c2c(N)n(C)c(=O)n(C)c2=O)ccc1OCCC(C)C,EC50,[4],12.7 µM (active)
same,EC50,[5],> 150 µM (not active)
same,EC50,[6],> 150 µM (not active)
O=C(O)/C(CC(=O)c1ccc(Cl)cc1)=N/Nc1ccc([N+](=O)[O-])cc1[N+](=O)[O-],IC50,[3],12.5 µM (active)
COCC#Cc1ccc(CC[C@H]2O[C@H]3CC[C@@H](CO)O[C@H]3C[C@@H]2n2cc(C3CC3)nn2)cc1,AC50,[11],5.82 µM (active)
CC(C)(C)C1CC=C2C(C#N)=C(N)C(C#N)(C#N)C(c3cccs3)C2C1 (configuration not stated),EC50,[4],14.9 µM (active)
same,EC50,[5],25.7 µM (active)
same,EC50,[6],> 150 µM (not active)
O=C(Nc1nc(-c2ccccc2)cs1)C1CCCN(S(=O)(=O)c2ccccc2)C1 (configuration not stated),CC50,[1],2.26 µM (active)
same,EC50,[17],2.68 µM (active)
same,EC50,[18],> 30 µM (not active)
CSc1ccc(CN(C)CC(=O)Nc2c(F)cccc2F)cc1,IC50,[19],2.25 µM (not active)
O=C(C[C@H]1C[C@@H]2c3cc(NC(=O)C4CCOCC4)ccc3O[C@@H]2[C@H](CO)O1)NCc1ccccc1,AC50,[14],2.09 µM (active)
